# Reference: patent US6734168B2, “Endothelial monocyte activating polypeptide II: a mediator which activates host response” (The Trustees of Columbia University in the City of New York, priority 1993, dated 2004)
# Columns and labels:
# Type in all cases: cell-based
# human PMNs = assay: PMN migration in microchemotaxis chambers; design: key to PMN MIGRATION: (+) indicates the peptide induced PMN migration; (−) indicates the peptide did not induce PMN migration above levels seen in controls which contained no chemotactic stimulus
# Method: (§1) Assessment of mononuclear phagocyte (mononuclears) and polymorphonuclear leukocyte (PMN) migration. Human peripheral blood monocytes were isolated from the blood of normal healthy volunteers (30). Blood was centrifuged on Hisopaque 1077 (Sigma, St. Louis, Mo.), the mononuclear fraction was obtained, washed twice in Earle's balanced salt solution, resuspended in RPMI 1640 containing human serum (10%; Gemini, Calabasas, Calif.), plated on tissue culture dishes and incubated at 37° C. for 1-2 hrs. Nonadherent cells were removed by washing the plate twice with balanced salt solution, and adherent cells were harvested by incubation with calcium-magnesium free buffer containing EDTA (2 mM) for 15 min at 37° C., followed by extensive washing. PMNs were prepared by centrifugation over Hisopaque 1119 as per the manufacturer's protocol (Sigma). Chemotaxis assays were performed in microchemotaxis chamber (NeuroProbe, Bethesda, Md.) containing Nucleopore polycarbonate membranes (5 μm; Nucleopore, Pleasonton, Calif.). Mononuclears or PMNs were suspended in RPMI 1640 containing fetal bovine serum (1%) and 10^4 cells were added per well to the upper chamber. The chemotactic stimulus was added to the indicated chamber, and assays were performed in quadruplicate over a 3 hr or 45 min incubation period at 37° C., with mononuclear cells or PMNs, respectively, after which non-migrating cells were removed, membranes were fixed in methanol, migrating cells were visualized with Wright's stain. Cells in nine high-power fields were counted, and the mean and standard error of the mean (SEM) were determined.
# (§2) Cell migration was studied by adding MPs or PMNs (10^4 cells/well) resuspended in RPMI 1640 with fetal calf serum (1%; Gemini) to the upper wells of a microchemotaxis chamber (Neuro Probe, Bethesda, Md.) containing Nucleopore polycarbonate membranes (5 μm, Nucleopore, Pleasanton Calif.), as described (7,29-30). The chemotactic stimulus was placed in the upper or lower chamber, as indicated, and cells were allowed to migrate for 3 hrs (for MPs) or 45 min (for PMNs) at 37° C. Following removal of non-migrating cells, membranes were fixed in methanol and migrating cells were visualized with Wright's stain. Assays were performed in quadruplicate, and cells were counted in nine high-power fields in each case (mean±SEM is shown in the figures).
# (§3) Migration of PMNs and MPs—Migration was studied using cells (10^4 and 10^3 cells/well form PMNs and MPs, respectively) resuspended in RPMI 1640 with fetal calf serum (1%) added to the upper wells of a microchemotaxis chamber (Neuro Probe, Bethesda, Md.) containing Nucleopore polycarbonate membranes (5 um, Nucleopor, Pleasanton, Calif.), as described (13, 22, 35). The stimulus was placed in the upper or lower chamber, as indicated, and the cells were allowed to migrate for 3 h (for MPs) or 45 min (for PMNs) at 37° C. Following removal of nonmigrating cells, membranes were fixed in methanol, and migrating cells were visualized with Wright's stain. Assays were performed in quadruplicate, and cells were counted in […] high-power fields in each case (mean±S.E. is shown in the figures).
# [1] = system: human peripheral blood monocytes (MPs); assay: Mononuclear phagocyte migration in microchemotaxis chambers
# Method: as §1, §2, §3
# human umbilical vein ECs = assay: EC tissue factor activity, Factor VIIa-dependent Factor Xa formation
# Method: Tissue factor activity of monolayers of ECs and MPs was determined (7) after incubation with EMAP II-derived peptides at 37° C. for 4-12 hrs by washing cultures with HEPES (10 MM; pH 7.4), NaCl (137 mM), KCl (4 mM), CaCl2 (3 mM), glucose (10 mM), bovine serum albumin (0.5 mg/ml), and addition of 0.5 ml of the same buffer along with purified human Factor VIIa (1 nM) and Factor X (200 nM) for 45 min at 37° C. Aliquots (0.05 ml) of the reaction mixture (one per well) were withdrawn at 15 min intervals, added to a buffer containing Tris (50 mM; pH 7.9), NaCl (175 mM), EDTA (5 mM) and bovine serum albumin (0.5 mg/ml; 0.05 ml), and the chromogenic substrate Spectrozyme Factor Xa (American Diagnositca, Inc., Greenwich Conn.; 0.01 ml; 2 mM). Cleavage of the substrate was monitored by the change in absorbance at 405 nm (BioKinetics Reader, Winooski, Vt.). Factor Xa concentration was determined by comparison with a standard curve generated with known amounts of purified human Factor Xa. Human, plasma-derived Factors VIIa and X were purified to homogeneity as described (31).
# In Vitro Assays of EC, MP, and PMN Functions-Cell-associated tissue factor was assayed by its functional activity, using purified coagulation proteins, and tissue factor mRNA was detected by PCR. […] The concentration of Factor Xa was determined based on a standard curve generated with purified Factor Xa. […]
sequence,measurement,setting,value
"ASRLDLRIGRIVTAKY [residues #6-20 from EMAP II, Cys to Arg substitution at position #15, and a C-terminal Tyr]",Dose above which PMN migration reached an apparent maximum,human PMNs; data not shown,> 1 nM
same,EC50,"human PMNs; four experiments, PMNs from three individuals, read-out: Peptide concentration for half-maximal PMN migration",0.15 to 0.3 nM
same,Induction of PMN migration (chemotaxis),"human PMNs; microchemotaxis chamber, 45 min at 37° C.",led to induction of migration
same,PMN migration at 100 pM peptide relative to fMLP at 1 μM,human PMNs; peptide 100 pM,roughly comparable
same,Concentration range over which effect on PMN migration was dose-dependent,human PMNs; peptide added to the lower well,10 to 10000 pM
same,PMN MIGRATION,human PMNs; peptides 100 pM in each case,+
same,Induction of MP (mononuclear cell) migration (chemotaxis),"[1]; microchemotaxis chamber, 3 hrs at 37° C.",induce chemotaxis
same,MP migration at 100 pM peptide relative to FMLP at 1 μM,[1]; peptide 100 pM,similar
same,Induction of tissue factor activity in ECs (Factor VIIa-dependent Factor X activation),human umbilical vein ECs,did not demonstrate induction of tissue factor activity
